Results from ChEMBL document CHEMBL5154871, “Non-peptidyl non-covalent cathepsin C inhibitoEEr bearing a unique thiophene-substituted pyridine: Design, structure-activity relationship and anti-inflammatory activity in vivo” (Eur J Med Chem, 2022).

Columns and labels:
Dipeptidyl peptidase 1 [1] = molecular target: T1, Dipeptidyl peptidase 1 (Homo sapiens, UniProt P53634); test: Inhibition of Cathepsin C in human U-937 cells using H-Gly-Phe-AFC as substrate pretreated for 1 hr followed by substrate addition and incubated for 60 mins by microplate reader assay; type: cell-based
T1 sequence (P53634 25-134 limits assumed): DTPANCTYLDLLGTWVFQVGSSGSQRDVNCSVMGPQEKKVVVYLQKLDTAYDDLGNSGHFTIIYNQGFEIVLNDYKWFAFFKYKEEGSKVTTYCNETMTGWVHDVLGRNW
T1 sequence (P53634 231-394 limits assumed): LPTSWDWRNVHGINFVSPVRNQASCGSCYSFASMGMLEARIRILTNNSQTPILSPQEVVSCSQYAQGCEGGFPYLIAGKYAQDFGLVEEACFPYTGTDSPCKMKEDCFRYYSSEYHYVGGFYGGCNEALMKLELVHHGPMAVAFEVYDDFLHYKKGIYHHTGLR
T1 sequence (P53634 395-463 limits assumed): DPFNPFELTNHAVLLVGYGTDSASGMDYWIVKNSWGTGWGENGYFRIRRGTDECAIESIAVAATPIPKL

Dipeptidyl peptidase 1 [2] = molecular target: T1, Dipeptidyl peptidase 1; test: Inhibition of Cathepsin C in human THP-1 cells using H-Gly-Phe-AFC as substrate pretreated for 1 hr followed by substrate addition and incubated for 60 mins by microplate reader assay; type: cell-based
Dipeptidyl peptidase 1 [3] = molecular target: T1, Dipeptidyl peptidase 1; test: Inhibition of human recombinant Cathepsin C using H-Gly-Arg-AMC as substrate pretreated for 30 mins followed by substrate addition and incubated for 60 mins by microplate reader assay
Cathepsin B = Cathepsin B (Homo sapiens, UniProt P07858); test: Inhibition of human recombinant Cathepsin B using Z-Leu-Arg-AMC as substrate pretreated for 60 mins followed by substrate addition and incubated for 30 mins by microplate reader assay

| IC50 (Dipeptidyl peptidase 1 [1]) | IC50 (Dipeptidyl peptidase 1 [2]) | IC50 (Dipeptidyl peptidase 1 [3]) | IC50 (Cathepsin B) | Structure (SMILES) |
| --- | --- | --- | --- | --- |
| > 5000 nM | > 5000 nM | > 5000 nM | – | FC(F)(F)c1cccc(Nc2nc(Nc3ccc(-c4ccsc4)cn3)ncc2-c2cccc(Cl)c2)c1 |
| 178 nM | 203 nM | 65.6 nM | > 5000 nM | FC(F)(F)c1cccc(Nc2nc(Nc3cccc(-c4ccsc4)c3)ncc2Cl)c1 |
| > 5000 nM | > 5000 nM | > 5000 nM | – | FC(F)(F)c1cccc(Nc2nc(Nc3cnc(-c4ccsc4)cn3)ncc2Cl)c1 |
| 86.5 nM | 102 nM | 61.8 nM | – | CC(=O)Nc1ccc(-c2cnc(Nc3ccc(-c4ccsc4)cn3)nc2Nc2cccc(C(F)(F)F)c2)cc1 |
| 169 nM | 120 nM | 91.5 nM | – | Clc1cnc(Nc2ccc(-c3ccsc3)cn2)nc1NC1CCNCC1 |
| 416 nM | > 3000 nM | 248 nM | – | Cn1cc(-c2cnc(Nc3ccc(-c4ccsc4)cn3)nc2Nc2cccc(C(F)(F)F)c2)cn1 |
| 99.9 nM | 63.9 nM | 76.4 nM | – | CC(=O)Nc1ccc(Nc2nc(Nc3ccc(-c4ccsc4)cn3)ncc2Cl)cc1 |
| 396 nM | 129 nM | 128 nM | – | FC(F)(F)c1cccc(Nc2nc(Nc3ccc(-c4cccs4)cn3)ncc2Cl)c1 |
| 154 nM | 110 nM | 92.4 nM | – | FC(F)(F)Oc1ccc(Nc2nc(Nc3ccc(-c4ccsc4)cn3)ncc2Cl)cc1 |
| > 5000 nM | > 5000 nM | > 5000 nM | – | CN1CCN(Cc2ccc(-c3cnc(Nc4ccc(-c5ccsc5)cn4)nc3Nc3cccc(C(F)(F)F)c3)cc2)CC1 |
| 356 nM | 288 nM | 216 nM | – | FC(F)(F)c1cccc(Nc2nc(Nc3ccc(-c4ccsc4)cn3)ncc2-c2ccc(Cl)cc2)c1 |
| 216 nM | 160 nM | 103 nM | – | FC(F)(F)c1cccc(Nc2nc(Nc3ccc(-c4ccsc4)nc3)ncc2Cl)c1 |
| 246 nM | 180 nM | 252 nM | – | FC(F)(F)Oc1cccc(Nc2nc(Nc3ccc(-c4ccsc4)cn3)ncc2Cl)c1 |
| > 5000 nM | > 5000 nM | > 5000 nM | – | FC(F)(F)c1cccc(Nc2nc(Nc3ccc(-c4ccsc4)cn3)ncc2-c2ccoc2)c1 |
| > 5000 nM | > 5000 nM | > 5000 nM | – | FC(F)(F)c1cccc(Nc2nc(Nc3ccc(-c4ccsc4)cn3)ncc2-c2ccncc2)c1 |
| 180 nM | 203 nM | 98.6 nM | – | FC(F)(F)c1cccc(Nc2nc(Nc3ccc(-c4ccsc4)cn3)ncc2Br)c1 |
| 127 nM | 156 nM | 132 nM | – | Nc1cccc(Nc2nc(Nc3ccc(-c4ccsc4)cn3)ncc2Cl)c1 |
| > 5000 nM | > 5000 nM | > 5000 nM | – | NC(=O)c1cccc(-c2cnc(Nc3ccc(-c4ccsc4)cn3)nc2Nc2cccc(C(F)(F)F)c2)c1 |
| > 5000 nM | > 5000 nM | > 5000 nM | – | CN1CCN(c2ccc(-c3cnc(Nc4ccc(-c5ccsc5)cn4)nc3Nc3cccc(C(F)(F)F)c3)cc2)CC1 |
| 89.5 nM | 111 nM | 57 nM | > 5000 nM | Nc1ccc(Nc2nc(Nc3ccc(-c4ccsc4)cn3)ncc2Cl)cc1 |

| IC50 (Dipeptidyl peptidase 1 [1]) | IC50 (Dipeptidyl peptidase 1 [2]) | IC50 (Dipeptidyl peptidase 1 [3]) | IC50 (Cathepsin B) | Structure (SMILES) |
| --- | --- | --- | --- | --- |
| > 5000 nM | > 5000 nM | > 5000 nM | – | CS(=O)(=O)c1ccc(-c2cnc(Nc3ccc(-c4ccsc4)cn3)nc2Nc2cccc(C(F)(F)F)c2)cc1 |
| 181 nM | 89.5 nM | 90.6 nM | – | FC(F)(F)c1cccc(Nc2nc(Nc3ccc(-c4ccsc4)nn3)ncc2Cl)c1 |
| > 5000 nM | > 5000 nM | > 5000 nM | – | FC(F)(F)c1cccc(Nc2nc(Nc3ccc(-c4ccco4)cn3)ncc2Cl)c1 |
| > 5000 nM | > 5000 nM | > 5000 nM | – | FC(F)(F)c1cccc(Nc2nc(Nc3ccc(-c4ccsc4)cn3)ncc2-c2ccccc2)c1 |
| 276 nM | 197 nM | 152 nM | – | O=[N+]([O-])c1cc(-c2ccsc2)cnc1Nc1ncc(Cl)c(Nc2cccc(C(F)(F)F)c2)n1 |
| 150 nM | 184 nM | 105 nM | – | FC(F)(F)c1ccc(Nc2nc(Nc3ccc(-c4ccsc4)cn3)ncc2Cl)cc1 |
| 155 nM | 141 nM | 102 nM | – | Clc1cnc(Nc2ccc(-c3ccsc3)cn2)nc1Nc1ccccn1 |
| 155 nM | 260 nM | 77.9 nM | – | FC(F)(F)c1cccc(Nc2nc(Nc3cc(-c4ccsc4)ccn3)ncc2Cl)c1 |
| 134 nM | 105 nM | 128 nM | – | Fc1ccc(Nc2nc(Nc3ccc(-c4ccsc4)cn3)ncc2Cl)cc1 |
| > 5000 nM | > 5000 nM | > 5000 nM | – | FC(F)(F)c1cccc(Nc2nc(Nc3ncc(-c4ccsc4)cn3)ncc2Cl)c1 |
| 200 nM | 170 nM | 142 nM | – | Fc1ccc(Nc2nc(Nc3ccc(-c4ccsc4)cn3)ncc2Cl)cc1C(F)(F)F |
| 92.2 nM | 89.8 nM | 69.4 nM | – | FC(F)(F)c1ccc(CNc2nc(Nc3ccc(-c4ccsc4)cn3)ncc2Cl)cc1 |
| 228 nM | 308 nM | 156 nM | – | CC(=O)c1cccc(-c2cnc(Nc3ccc(-c4ccsc4)cn3)nc2Nc2cccc(C(F)(F)F)c2)c1 |
| 174 nM | 159 nM | 99.8 nM | – | Fc1ccc(Nc2nc(Nc3ccc(-c4ccsc4)cn3)ncc2Cl)cc1F |
| > 5000 nM | > 5000 nM | > 5000 nM | – | Nc1ccc(-c2cnc(Nc3ccc(-c4ccsc4)cn3)nc2Nc2cccc(C(F)(F)F)c2)cc1 |
| > 5000 nM | > 5000 nM | > 5000 nM | – | FC(F)(F)c1cccc(Nc2nc(Nc3ccc(-c4ccsc4)cc3)ncc2Cl)c1 |
| > 5000 nM | > 5000 nM | > 5000 nM | – | CN1CC=C(c2cnc(Nc3ccc(-c4ccsc4)cn3)nc2Nc2cccc(C(F)(F)F)c2)CC1 |
| 285 nM | 357 nM | 133 nM | – | NC(=O)c1ccc(-c2cnc(Nc3ccc(-c4ccsc4)cn3)nc2Nc2cccc(C(F)(F)F)c2)cc1 |
| > 5000 nM | > 5000 nM | > 5000 nM | – | CC(=O)Nc1cccc(-c2cnc(Nc3ccc(-c4ccsc4)cn3)nc2Nc2cccc(C(F)(F)F)c2)c1 |
